From patent publication US9079866B2, “Flap modulators” (JANSSEN PHARMACEUTICA NV, priority 2013, dated 2015)
Counter-ions that a name gives are not always drawn. Like-named read-outs stand apart in the source and are kept apart here.

Columns and labels:
[1] = tested on: leukotriene pathway in human whole blood (LTB4 levels); test: Human whole blood assay (A23187-stimulated LTB4); type: cell-based; settings: Homo sapiens, read-out: LTB4 IC50 1:1
In short: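 Blood (heparin) diluted 1:1 RPMI; compound pre-incubation 15 min, 37° Celsius; A23187 7 μg/mL, 30 min, 37° Celsius; plasma LTB4 by commercial kit. IC50 via 4-parameter equation.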

human FLAP = human FLAP (Homo sapiens (Human), UniProt P20292); test: FLAP binding assay (HTRF format); settings: HTRF format
Sequence of human FLAP (P20292 whole entry): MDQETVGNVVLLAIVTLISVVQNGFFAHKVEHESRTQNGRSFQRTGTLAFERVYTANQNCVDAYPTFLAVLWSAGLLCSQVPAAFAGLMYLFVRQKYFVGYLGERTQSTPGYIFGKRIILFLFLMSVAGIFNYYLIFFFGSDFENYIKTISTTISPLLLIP
In short: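 Samples were run in duplicate on each of two assay plates, the results were averaged, and the signal was expressed as an HTRF ratio.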

[2] = human whole blood diluted 1:1 in RPMI, A23187-stimulated LTB4
[3] = human FLAP wild type, average of two plates, duplicates
[4] = human whole blood diluted 1:1, A23187-stimulated

Structure (SMILES) | IC50 [1, 2] | Ki (human FLAP; [3]) | IC50 [1, 4] | Ki (human FLAP; wild type FLAP)
C[C@H]1CNCCN1S(=O)(=O)c1ccccc1-c1ccc(-c2cnc(N)nc2)c(F)c1 [Example 253, 5-(3-Fluoro-2′-{[(2S)-2-methylpiperazin-1-yl]sulfonyl}biphenyl-4-yl)pyrimidin-2-amine] | 191 nM | 134 nM |  | 
CN([C@H]1CCCNC1)S(=O)(=O)c1ccccc1-c1ccc(-c2cnc(N)nc2)c(F)c1 [Example 256, 4′-(2-Aminopyrimidin-5-yl)-3′-fluoro-N-methyl-N-[(3S)-piperidin-3-yl]biphenyl-2-sulfonamide] | 73 nM | 35 nM |  | 
Nc1cnc(-c2ccc(-c3ccccc3S(=O)(=O)N3CCOCC3)cc2F)cn1 [Example 44, 5-[3-Fluoro-2′-(morpholin-4-ylsulfonyl)biphenyl-4-yl]pyrazin-2-amine] | 58 nM | 7 nM |  | 
CN([C@@H]1CCCNC1)S(=O)(=O)c1ccccc1-c1ccc(-c2cnc(N)nc2)c(F)c1 [Example 257, 4′-(2-Aminopyrimidin-5-yl)-3′-fluoro-N-methyl-N-[(3R)-piperidin-3-yl]biphenyl-2-sulfonamide] | 1120 nM | 154 nM |  | 
CC(C)S(=O)(=O)c1ccccc1-c1ccc(-c2cnc(N)cn2)c(F)c1 [Example 199, 5-{3-Fluoro-2′-[(1-methylethyl)sulfonyl]biphenyl-4-yl}pyrazin-2-amine] | 250 nM | 39 nM |  | 
Nc1cnc(-c2ccc(-c3ccccc3S(=O)(=O)N3CCC[C@H]3CO)cc2F)cn1 [Example 95, (S)-(1-((4′-(5-Aminopyrazin-2-yl)-3′-fluoro-[1,1′-biphenyl]-2-yl)sulfonyl)pyrrolidin-2-yl)methanol] | 53 nM | 10 nM |  | 

Next, values leading:

IC50 [1, 2] | Ki (human FLAP; [3]) | IC50 [1, 4] | Ki (human FLAP; wild type FLAP) | Structure (SMILES)
29 nM | 3 nM |  |  | Nc1ncc(-c2ccc(-c3ccc(C(F)(F)F)cc3S(=O)(=O)NCCO)cc2F)cn1 [Example 326, 4′-(2-Aminopyrimidin-5-yl)-3′-fluoro-N-(2-hydroxyethyl)-4-(trifluoromethyl)biphenyl-2-sulfonamide]
 |  | 358 nM | 28 nM | CC(C)Oc1ncccc1-c1ccc(-c2cnc3[nH]ccc3n2)c(F)c1 [Example 399, 2-{2-Fluoro-4-[2-(1-methylethoxy)pyridin-3-yl]phenyl}-5H-pyrrolo[2,3-b]pyrazine]
 |  | 362 nM | 79.6 nM | N#Cc1nc(N)cnc1-c1ccc(-c2ccccc2S(=O)(=O)NCCO)cc1F [Example 706, 4′-(5-Amino-3-cyanopyrazin-2-yl)-3′-fluoro-N-(2-hydroxyethyl)biphenyl-2-sulfonamide]
 |  | 51.3 nM | 14.7 nM | NC(=O)C1(S(=O)(=O)c2ccccc2-c2ccc(-c3cnc(N)cn3)c(F)c2)CCCC1 [Example 731, 1-{[4′-(5-Aminopyrazin-2-yl)-3′-fluorobiphenyl-2-yl]sulfonyl}cyclopentanecarboxamide]
 |  | 61 nM | 5.3 nM | Nc1cnc(-c2ccc(-c3ccccc3-c3cncc(N)n3)cc2F)cn1 [Example 842, 5-[2′-(6-Aminopyrazin-2-yl)-3-fluorobiphenyl-4-yl]pyrazin-2-amine]
111 nM | 3 nM |  |  | Nc1ncc(-c2ccc(-c3ccccc3S(=O)(=O)Nc3ccccc3)cc2F)cn1 [Example 285, 4′-(2-Aminopyrimidin-5-yl)-3′-fluoro-N-phenylbiphenyl-2-sulfonamide trifluoroacetic acid salt]
 |  | 272 nM | 17.8 nM | C[C@H](NC(=O)c1cc(C(F)(F)F)ccc1-c1ccc(-c2cnc(N)nc2)c(F)c1)C(F)(F)F [Example 788, 2-[4-(2-Aminopyrimidin-5-yl)-3-fluoro-phenyl]-5-(trifluoromethyl)-N-[(1S)-2,2,2-trifluoro-1-methyl-ethyl]benzamide]
 |  | 2820 nM | 60 nM | CC(C)(C)NS(=O)(=O)c1ccccc1-c1ccc(-c2cn3c(N)cccc3n2)c(F)c1 [Example 581, 4′-(5-Aminoimidazo[1,2-a]pyridin-2-yl)-N-tert-butyl-3′-fluorobiphenyl-2-sulfonamide]
